Source: publication PMC8016481, “Tachykinin signaling inhibits task-specific behavioral responsiveness in honeybee workers” (eLife, 2021)
Entries after “also recorded” stand apart in the source; their conditions may differ.

Columns and labels:
honeybee TRPR [1] = assay: Competitive binding of TRPs to TRPR in HEK293 cells (displacement of TAMRA-TRP2/TAMRA-TRP3); design: species or system Apis mellifera; settings: for competitive binding (residual TAMRA-TRP binding): HEK293
TRPR [2] = test system: TRPR
honeybee TRPR [3] = assay: Competitive binding of TRPs to TRPR in Sf21 cells (displacement of TAMRA-TRP2/TAMRA-TRP3); design: species or system Apis mellifera
TRPR [4] = test system: TRPR; remark: listed apart in the source
[5] = test system: TRP2-mediated cAMP accumulation; assay: Effect of PTX, CTX, YM-254890 and H89 on TRP2-mediated cAMP accumulation, HEK293 cells expressing TRPR; assay type: cell-based, Homo sapiens; settings: TRP2, Control (no inhibitor)
TRPR [6] = test system: TRPR; remark: listed apart in the source
[7] = test system: worker bees (Apis mellifera ligustica); assay: Proboscis extension response (PER) after TRP2 injection; assay type: in vivo; settings: for reduction of SRS vs ddH2O, Z: Mann-Whitney U test; for PER ratio: 1 μl of 1 μg/μl into head, 1 hr after injection
Method: To investigate the sucrose responsiveness, bees were assayed using an ascending order of sucrose concentrations: 0.1%, 0.3%, 1%, 3%, 10%, and 30% (weight/weight). A small droplet of each solution was touched to the bees’ antennae for 3 s and the extension of the proboscis was monitored during this time. The interval between each sucrose solution trial was 5 min to exclude sensitization or habituation effects. The total number of PER responses after stimulation with the six different sucrose concentrations was combined into an SRS of a bee ([Pankiw et al., 2001]; [Scheiner et al., 2002]; [Scheiner et al., 2003]). The SRSs of the three behavioral phenotypes in the same species were compared using Kruskal-Wallis tests with Bonferroni correction. Pairwise Mann-Whitney U tests were used for comparing the same phenotype from two honeybee species. The sucrose responsiveness for specific sucrose concentrations was further compared between different groups with independent chi-square tests.
To test pollen stimulation, fresh pollen loads that had been removed from the leg of randomly selected PFs of the test group were used: AML were tested with pollen collected by AML foragers and ACC with pollen collected by ACC foragers. These loads contained a mixture of different pollen, predominated by black locust (R. pseudoacacia). As a control for mechanical stimulation, each bee had both antennae first touched with a piece of filter paper and spontaneous responders were excluded. Subsequently, both antennae of each bee were gently touched with a pollen load and PER responses were recorded. The pollen responsiveness was compared with independent chi-square tests between different groups.
To test responsiveness to larva, 1-day-old larvae from each honeybee species were collected, briefly rinsed in distilled water to remove royal jelly residue and dried on a filter paper. As before, both antennae of bees were touched with a piece of filter paper first and spontaneous responders were excluded, then PERs in response to a larva touching the antennae were recorded. The responsiveness to larvae was compared with independent chi-square tests between different groups. Statistical analyses were conducted using SPSS Statistics 20.0 (IBM, USA).
To confirm the function of TRP on task-specific responsiveness, NBs, PFs, and NFs of AML were injected with TRP2 and tested for their PER response to sucrose solution, pollen, and larva. About 150 bees of each behavioral phenotype were collected in the morning, then harnessed, fed and placed in a dark incubator as described in 'Comparative PER experiments' section. […] Bees injected with ddH2O were used as control. All injected bees were put back to the dark incubator and 1 hr after injection all surviving bees were assayed for their PER to stimulations of sucrose solution, pollen, and larva as described in 'Comparative PER experiments' section. Each experiment was performed with a new set of bees containing about 55 individuals per experimental and control group.
The sucrose responsiveness was further compared between different groups at each specific sucrose concentration with independent chi-square tests. […] All statistical analyses were performed with SPSS Statistics 20.0 (IBM).

With “ALMGFQGVRa [TRP2, honeybee tachykinin-related peptide 2, synthesized by SynPeptide]” the “competitive binding (residual TAMRA-TRP binding)” value (honeybee TRPR [1]; Log (M) -4, replicate 1) was 6.8655, the “competitive binding (residual TAMRA-TRP binding)” value (honeybee TRPR [1]; Log (M) -4, replicate 2) was 5.4421 and the “competitive binding (residual TAMRA-TRP binding)” value (honeybee TRPR [1]; Log (M) -4, replicate 3) was 6.7148. For the same substance, the “competitive binding (residual TAMRA-TRP binding)” value (honeybee TRPR [1]; Log (M) -5, replicate 1) was 5.4278, the “competitive binding (residual TAMRA-TRP binding)” value (honeybee TRPR [1]; Log (M) -5, replicate 2) was 4.8584 and the “competitive binding (residual TAMRA-TRP binding)” value (honeybee TRPR [1]; Log (M) -5, replicate 3) was 7.2943. The “competitive binding (residual TAMRA-TRP binding)” value (honeybee TRPR [1]; Log (M) -6, replicate 1) was 7.7659, the “competitive binding (residual TAMRA-TRP binding)” value (honeybee TRPR [1]; Log (M) -6, replicate 2) was 5.3036 and the “competitive binding (residual TAMRA-TRP binding)” value (honeybee TRPR [1]; Log (M) -6, replicate 3) was 8.6345. The “competitive binding (residual TAMRA-TRP binding)” value (honeybee TRPR [1]; Log (M) -7, replicate 1) was 18.9281, the “competitive binding (residual TAMRA-TRP binding)” value (honeybee TRPR [1]; Log (M) -7, replicate 2) was 12.1701 and the “competitive binding (residual TAMRA-TRP binding)” value (honeybee TRPR [1]; Log (M) -7, replicate 3) was 11.2282. For the same substance, the “competitive binding (residual TAMRA-TRP binding)” value (honeybee TRPR [1]; Log (M) -8, replicate 1) was 39.3417, the “competitive binding (residual TAMRA-TRP binding)” value (honeybee TRPR [1]; Log (M) -8, replicate 2) was 38.9933 and the “competitive binding (residual TAMRA-TRP binding)” value (honeybee TRPR [1]; Log (M) -8, replicate 3) was 33.9876. For the same substance, the “competitive binding (residual TAMRA-TRP binding)” value (honeybee TRPR [1]; Log (M) -9, replicate 1) was 62.0505, the “competitive binding (residual TAMRA-TRP binding)” value (honeybee TRPR [1]; Log (M) -9, replicate 2) was 61.6487 and the “competitive binding (residual TAMRA-TRP binding)” value (honeybee TRPR [1]; Log (M) -9, replicate 3) was 64.6985. The “competitive binding (residual TAMRA-TRP binding)” value (honeybee TRPR [1]; Log (M) -10, replicate 1) was 72.1434, the “competitive binding (residual TAMRA-TRP binding)” value (honeybee TRPR [1]; Log (M) -10, replicate 2) was 80.3662 and the “competitive binding (residual TAMRA-TRP binding)” value (honeybee TRPR [1]; Log (M) -10, replicate 3) was 73.4408. The “competitive binding (residual TAMRA-TRP binding)” value (honeybee TRPR [1]; Log (M) -11, replicate 1) was 96.7383, the “competitive binding (residual TAMRA-TRP binding)” value (honeybee TRPR [1]; Log (M) -11, replicate 2) was 91.1557 and the “competitive binding (residual TAMRA-TRP binding)” value (honeybee TRPR [1]; Log (M) -11, replicate 3) was 93.6625. For the same substance, the “competitive binding (residual TAMRA-TRP binding)” value (honeybee TRPR [1]; Log (M) -12, replicate 1) was 92.6094, the “competitive binding (residual TAMRA-TRP binding)” value (honeybee TRPR [1]; Log (M) -12, replicate 2) was 98.3333 and the “competitive binding (residual TAMRA-TRP binding)” value (honeybee TRPR [1]; Log (M) -12, replicate 3) was 97.4974. For the same substance, the “affinity of TRPR, TRP2 compared with TRP3” value (honeybee TRPR [1]; competitive binding assays, HEK293 and Sf21 cells) was “stronger binding affinity to the receptor TRPR than TRP3; also recorded: higher for TRP2 than for TRP3; also recorded: higher affinity to TRPR”, the “time by which ERK phosphorylation is near basal levels” value (TRPR [2]) was no more than 90 min and the “time of maximal ERK phosphorylation” value (TRPR [2]) was 2 min. The competitive binding (honeybee TRPR [3]; Log (M) -4, replicate 1) was 26.6823, the competitive binding (honeybee TRPR [3]; Log (M) -4, replicate 2) was 24.9306 and the competitive binding (honeybee TRPR [3]; Log (M) -4, replicate 3) was 19.6578. It also gave a competitive binding (honeybee TRPR [3]; Log (M) -5, replicate 1) of 24.5134, a competitive binding (honeybee TRPR [3]; Log (M) -5, replicate 2) of 25.2301 and a competitive binding (honeybee TRPR [3]; Log (M) -5, replicate 3) of 28.7532. It also gave a competitive binding (honeybee TRPR [3]; Log (M) -6, replicate 1) of 31.3191, a competitive binding (honeybee TRPR [3]; Log (M) -6, replicate 2) of 30.3643 and a competitive binding (honeybee TRPR [3]; Log (M) -6, replicate 3) of 34.3614. The competitive binding (honeybee TRPR [3]; Log (M) -7, replicate 1) was 40.7138, the competitive binding (honeybee TRPR [3]; Log (M) -7, replicate 2) was 35.6042 and the competitive binding (honeybee TRPR [3]; Log (M) -7, replicate 3) was 42.4738. The competitive binding (honeybee TRPR [3]; Log (M) -8, replicate 1) was 59.0125, the competitive binding (honeybee TRPR [3]; Log (M) -8, replicate 2) was 64.4899 and the competitive binding (honeybee TRPR [3]; Log (M) -8, replicate 3) was 60.9813. It also gave a competitive binding (honeybee TRPR [3]; Log (M) -9, replicate 1) of 79.5758, a competitive binding (honeybee TRPR [3]; Log (M) -9, replicate 2) of 73.4731 and a competitive binding (honeybee TRPR [3]; Log (M) -9, replicate 3) of 72.5477. It also gave a competitive binding (honeybee TRPR [3]; Log (M) -10, replicate 1) of 80.4598, a competitive binding (honeybee TRPR [3]; Log (M) -10, replicate 2) of 86.2073 and a competitive binding (honeybee TRPR [3]; Log (M) -10, replicate 3) of 87.5948. The competitive binding (honeybee TRPR [3]; Log (M) -11, replicate 1) was 96.7722, the competitive binding (honeybee TRPR [3]; Log (M) -11, replicate 2) was 92.2369 and the competitive binding (honeybee TRPR [3]; Log (M) -11, replicate 3) was 91.4817. It also gave a competitive binding (honeybee TRPR [3]; Log (M) -12, replicate 1) of 92.3887, a competitive binding (honeybee TRPR [3]; Log (M) -12, replicate 2) of 98.2368 and a competitive binding (honeybee TRPR [3]; Log (M) -12, replicate 3) of 98.3115. The “cAMP and Ca2+ signaling, TRP2 compared with TRP3” value (TRPR [4]) was “induced higher cAMP and Ca^2+ signaling than TRP3”, the “increase of cAMP levels” value (TRPR [4]) was “more than 10 fold” and the cAMP accumulation ([5]; Suppl.3A, replicate 1) was 9.157. The cAMP accumulation ([5]; Suppl.3A, replicate 2) was 10.923, the cAMP accumulation ([5]; Suppl.3A, replicate 3) was 10.206 and the cAMP accumulation ([5]; Suppl.3B, replicate 1) was 86.752. For the same substance, the cAMP accumulation ([5]; Suppl.3B, replicate 2) was 90.385, the cAMP accumulation ([5]; Suppl.3B, replicate 3) was 95.777 and the “intracellular Ca2+ levels” value (TRPR [6]) was “rose sharply”. The “effect on larva responsiveness vs ddH2O, χ^2” value ([7]; NBs, chi-square test) was 6.1, the “effect on larva responsiveness” value ([7]; NBs, vs ddH2O) was “significantly affected the responsiveness of NBs” and the “effect on sucrose responsiveness” value ([7]; NBs, vs ddH2O) was “did not show significant responsiveness changes to sucrose”. The “effect on larva responsiveness” value ([7]; NFs and PFs, vs ddH2O) was “not NFs or PFs”, the “reduction of SRS vs ddH2O, Z” value ([7]; NFs) was 2.3 and the “effect on sucrose responsiveness” value ([7]; NFs, vs ddH2O) was “significantly reducing PER responses to all sucrose concentrations except 0.1%”. For the same substance, the “reduction of SRS vs ddH2O, Z” value ([7]; PFs) was 2.2, the “decrease of pollen responsiveness vs ddH2O, χ^2” value ([7]; PFs, chi-square test) was 6.7 and the “effect on pollen responsiveness” value ([7]; PFs, vs ddH2O) was “significantly decreased responsiveness to pollen loads”. For the same substance, the “effect on sucrose responsiveness” value ([7]; PFs, vs ddH2O) was “significantly reducing PER responses to all sucrose concentrations used”, the PER ratio ([7]; nectar foragers, larva stimulus) was 11.54% and the PER ratio ([7]; nectar foragers, pollen stimulus) was 15.38%. The PER ratio ([7]; nectar foragers, sucrose 0.1%) was 10.34%, the PER ratio ([7]; nectar foragers, sucrose 0.3%) was 10.34% and the PER ratio ([7]; nectar foragers, sucrose 1.0%) was 12.07%. The PER ratio ([7]; nectar foragers, sucrose 3.0%) was 13.79%, the PER ratio ([7]; nectar foragers, sucrose 10.0%) was 20.69% and the PER ratio ([7]; nectar foragers, sucrose 30.0%) was 25.86%. The PER ratio ([7]; nurse bees, larva stimulus) was 18.18%, the PER ratio ([7]; nurse bees, pollen stimulus) was 12.73% and the PER ratio ([7]; nurse bees, sucrose 0.1%) was 15.38%. It also gave a PER ratio ([7]; nurse bees, sucrose 0.3%) of 19.23%, a PER ratio ([7]; nurse bees, sucrose 1.0%) of 25.00% and a PER ratio ([7]; nurse bees, sucrose 3.0%) of 30.77%. For the same substance, the PER ratio ([7]; nurse bees, sucrose 10.0%) was 40.38%, the PER ratio ([7]; nurse bees, sucrose 30.0%) was 48.08% and the PER ratio ([7]; pollen foragers, larva stimulus) was 22.64%. It also gave a PER ratio ([7]; pollen foragers, pollen stimulus) of 16.98%, a PER ratio ([7]; pollen foragers, sucrose 0.1%) of 16.98% and a PER ratio ([7]; pollen foragers, sucrose 0.3%) of 20.75%. For the same substance, the PER ratio ([7]; pollen foragers, sucrose 1.0%) was 22.64%, the PER ratio ([7]; pollen foragers, sucrose 3.0%) was 28.30% and the PER ratio ([7]; pollen foragers, sucrose 10.0%) was 32.08%. For the same substance, the PER ratio ([7]; pollen foragers, sucrose 30.0%) was 47.17%.
